Experimental data: US9662404B2, “Compositions and methods for the delivery of molecules into live cells” (The Texas A&M University System, priority 2013, dated 2017)

What was measured:
HeLa cells [1] = assay: Effect of endocytic inhibitors on cytosolic delivery of dTAT; format: cell-based; settings: 50 μM amiloride or 200 nM bafilomycin pre-treatment, then 5 μM dTAT and inhibitor
Protocol: (§1) FIGS. 8A-8C illustrate that dTAT mediates endosomal escape. (FIG. 8A) Effect of endocytic inhibitors on the cellular distribution of dTAT. HeLa cells were pre-treated with 50 μM amiloride or 200 nM bafilomycin for 30 and 20 min respectively, washed, and incubated with 5 μM dTAT and inhibitor. […] Scale bar, 10 μm. […] A schematic illustration of the experimental steps is shown (top). First, cells were incubated with 5 μM DEAC-K9 for 1 h and washed. Inverted monochrome images show a fluorescence punctuate distribution after incubation with DEAC-K9 alone. The same cells were then incubated with 5 μM dTAT for 1 h. Images show a redistribution of DEAC-K9 to the cytosol and nucleus (inhibited by bafilomycin). Scale bars, 10 μm. (FIG. 8C) The endosomolytic activity of dTAT is highly efficient. HeLa cells expressing SNAPH2B were incubated with 5 μM dTAT and 5 μM SNAP-Surface® 488. Fluorescence images show accumulation of SNAP-Surface® 488 in the nucleus. […] Small panels show cytosolic and nuclear fluorescence of TMR. Scale bars, 10 μm.
(§2) To test whether endosomal escape is involved in delivery of dTAT, the effects of amiloride, a macropinocytosis inhibitor, and bafilomycin, an inhibitor of endosomal acidification, were assessed. […] Cells were then washed and incubated with dTAT (FIG. 8B). […] This redistribution was however inhibited by bafilomycin.

HeLa cells [2] = assay: dTAT-induced cytosolic release of DEAC-K9 trapped inside endosomes; format: cell-based
Protocol: as §1, §2

HeLa cells [3] = assay: Delivery of peptides inside live cells, internalization assessed by fluorescence microscopy; format: cell-based; settings: 1 h incubation
Protocol: The TAT, dTAT and acTAT peptides were incubated for 1 h with several cell lines and internalization was assessed by fluorescence microscopy. […] See also FIG. 5. […] The cell lines HeLa, NIH 3T3, COLO 316 and HaCaT were incubated with 5 μM dTAT for 1 h, washed and imaged. […] After imaging, cells were incubated at 37° C. in a humidified atmosphere containing 5% CO2 for 24 h, washed and imaged again. […] Cell viability was assessed by exclusion of the cell-impermeable nuclear stain SYTOX® Blue at both 1 h and 24 h time point. […] Inverted monochrome (black=fluorescence signal, white-no signal) fluorescence images were made of HeLa cells incubated with 10 or 20 μM of TAT for 1 h.
Live cells from different lines (HeLa, HaCat, NIH 3T3) were grown in Dulbecco's […] (DMEM) (Fisher) supplemented with 10% fetal bovine serum (FBS) (Fisher) and kept at 37° C. in a humidified atmosphere containing 5% CO2. Cells were then seeded in 8-well dishes so that the cells were 80%-90% confluent after 48 h. […] The media (nrL-15) used for incubation lacks cysteine to avoid reduction of the disulfide bond of dTAT. Cells were then incubated with different concentrations of the acTAT, TAT, or dTAT at 37° C. for 1 h. […] Images were collected using a Rolera-MGI Plus back-illuminated EMCCD camera (Qimaging, Surrey, BC, Canada). Images were acquired using bright field imaging and three standard fluorescence filter sets: CFP (Ex=436±10 nm/Em=480±20 nm), RFP (Ex=560±20 nm/Em=630±35 nm), and FITC (Ex=488±10 nm/Em=520±20 nm). The fluorescence intensities of different cells were measured with the SlideBook 4.2 software (Olympus, Center Valley, Pa.) and the average fluorescence intensity was determined for each condition. It has been previously reported that CPPs labeled with fluorophores such as TMR can photosensitize membranes and cause endosomal leakage upon light irradiation. See, Srinivasan, D. et al., “Conjugation to the cell-penetrating peptide TAT potentiates the photodynamic effect of carboxytetramethylrhodamine,” PloS one 6:e17732 (2011) and Muthukrishnan, N., et al., “Synergy Between Cell-Penetrating Peptides and Singlet Oxygen Generators Leads to Efficient Photolysis of Membranes,” Photochemistry and Photobiology 89:625-630 (2012), each incorporated herein by reference in its entirety. […] First, all delivery experiments were performed under conditions of minimal light irradiation (dark room with dim red light). When fluorescence imaging is required, probes (e.g., SNAP surface 488, EGFP) are imaged before dTAT is, thereby minimizing the possible effect of light on endosomal release. For experiments performed with Cre and Hoxb4, cells are not imaged and not exposed to light (not at all for Hoxb4, 12 h after incubation for Cre).

HeLa cells [4] = assay: Quantitative determination of peptide uptake inside cells (bulk fluorescence of cell lysates); format: cell-based; settings: acTAT 5-25 μM (FIG. 23)
Protocol: HeLa cells were seeded in a 48 well dish, grown and washed as described above. For the peptide uptake experiment, each well was incubated for 1 h with varying concentration of acTAT, TAT or dTAT (range: 5-25 μM peptide concentration). For the titration experiment, cells were incubated with dTAT (5 μM) and varying concentrations of DEAC-K9 (range: 1-20 μM). Cells were then washed with PBS and nrL-15 and imaged. Multiple images for each condition were obtained and processed. To lyse cells, nrL-15 was removed from the wells and a total of 100 μL of HeLa cell lysis Buffer (50 mM Tris pH 7.5, 2 mM EDTA, 2 mM DTT, 0.1% Triton X-100) was incubated with cells for 5 min. The cells were lysed and scraped off the dish and pipetted into a 1.5 mL microcentrifuge tube. The cell lysates were centrifuged at 13.2K RPM for 25 min. […] The fluorescence from the cell lysates were measured using a plate reader equipped with a fluorescence module (Ex==525, Em=580-640 nm) (GloMax®-Multi+ Detection System, Promega, Fitchburg, Wis.). For the titration experiment, 80 μL of supernatant was diluted to a total volume of 100 μL and the bulk fluorescence was measured using a SLM-8000C fluorometer (Ex=435 nm, Em=465-475 nm) (SLM Instruments, Bath, UK). The fluorescence emission was averaged and recorded. […] The absorbance at 600 nm was measured using the plate reader. […]

[5] = test system: HeLa transfected with the pCALNL-GFP plasmid; format: cell-based
Protocol: The number of cells in the images was approximately the same as assessed by bright field microscopy (1,000 cells/experiment, experiments in triplicate, average and standard deviations represented). Scale bars, 100 μM.
To further confirm that functional proteins can penetrate cells upon incubation with dTAT, delivery of Cre recombinase was tested. In this assay, Cre induces recombination of a loxP-STOP-loxP sequence upstream of the egfp gene of a reporter plasmid.

NIH 3T3 cells = assay: HoxB4 and TAT-HoxB4 delivery, luciferase reporter under a HoxB4-inducible promoter; format: cell-based, murine
Protocol: Next, the delivery of the therapeutically important transcription factor HoxB4 was tested. HoxB4 can penetrate cells by itself or when fused to the […] TAT and activate transcription. […] NIH 3T3 cells were transfected with a vector containing the luciferase gene under a HoxB4-inducible promoter and with a β-galactosidase reporter as internal control. Cells were incubated with HoxB4 or TAT-HoxB4, in the absence or presence of dTAT for 1.5 h. Cells were then lysed and luciferase expression was assessed by measuring the luminescence of cell lysates normalized to β-galactosidase activity. […] These values are consistent with previously published reports. In contrast, addition of dTAT (3 μM), led to a luciferase induction of 53.1 and 307.4, respectively. The luciferase induction was therefore increased 24-fold in the presence of dTAT for HoxB4 and 61-fold for TAT-HoxB4. […] While increasing the transcriptional output of HoxB4 is valuable, high levels of HoxB4 expression can result in anti-proliferative and transforming effects. Precisely controlling the level and activity of HoxB4 inside cells is therefore important to achieve a desirable biological outcome. Because dTAT appears to act independently of the molecules used for co-incubation in our assays, it was hypothesized that it might be possible to titrate the amount of protein that penetrates cells by varying the protein concentration in the media while keeping dTAT concentration constant. Under this scenario, the efficiency of endosomal escape should remain unaffected but the amount of material released from endosomes should change.
The murine fibroblast cell line (NIH-3T3, stably transfected with the E2A-PBX vector), the luciferase reporter vector, pML (5×HOX/PBX; contains a promoter with binding sites for HOXB4 and PBX) and the β-gal internal control vector used in the following studies were kindly provided by P. Zandstra (University of Toronto, Ontario, Canada). The cells were initially cultured in 100 mm dishes at 37° C. with 5% CO2 in DMEM supplemented with 10% FBS. For experimental purposes, however, cells were seeded in 24-well plates at a density of 5-6×10^4 cells/well for 24 hours. Subsequently, cells were co-transfected with 0.8 μg/mL of pML (5×HOX/PBX) and of the β-gal internal control vector using Lipofectamine 2000. Twelve hours post-transfection, cells were washed and incubated with TAT-HoxB4 or HoxB4 (both at 200 nM, unless otherwise noted; see below) with or without TAT or dTAT in nrL-15 for 90 min. Some cells were also incubated with TAT-mCherry (200 nM) with and without the peptides. After incubation, all cells were washed with PBS and lysed according to the manufacturer's protocol for the reporter lysis buffer (RLB) (Promega). For titration experiments, the same protocol was followed, with the exception that HoxB4 concentrations were varied (25, 50, 100, 150 and 200 nM). In order to quantitate the luciferase reporter activity, 100 μL of luciferase assay reagent (Promega) was added to 20 μL of cell lysate and bioluminescence was immediately measured using a SpectraMaxL luminometer (Sunnyvale, Calif.). […] Absorbance was then measured at 450 nm using the plate reader. Since the absorption spectrum of the chromophore (TMR) conjugated to the peptide used in this study overlaps with that of β-gal, 20 μL of cell lysate containing the peptide was also diluted with 180 μL of the lysis buffer and absorbance values obtained at 450 nm were subtracted from that of the β-gal absorbance values. […]

## N=C(N)NC(=O)c1nc(Cl)c(N)nc1N [amiloride]
HeLa cells [1]
  effect of inhibitor on cytosolic delivery of dTAT: inhibited the cytosolic delivery of dTAT

## CO/C1=C\C(C)=C\[C@@H](C)[C@@H](O)[C@@H](C)C/C(C)=C/C=C/[C@H](OC)[C@@H]([C@@H](C)[C@@H](O)[C@H](C)[C@@]2(O)C[C@@H](O)[C@H](C)[C@@H](C(C)C)O2)OC1=O [bafilomycin, reference compound]
HeLa cells [2]
  effect of bafilomycin on dTAT-induced DEAC-K9 redistribution: inhibited
HeLa cells [1]
  effect of inhibitor on cytosolic delivery of dTAT: inhibited the cytosolic delivery of dTAT

## C(S—CH2CONH2)K(ε-NH-TMR)TAT [acTAT]
HeLa cells [3]; 1-20 μM
  cellular localization of peptide fluorescence: punctate distribution
HeLa cells [4]
  endosomal escape when internalized amount is above the dTAT threshold level: does not achieve endosomal escape

## CK(ε-NH-TMR)TAT ({Cys-K(TMR)}-RKKRRQRRRG-NH2) [monomer product: cysteine, TMR-modified lysine, TAT CPP domain … with C-terminal glycine amide]
[5]
  percentage of EGFP+ cells: 4.8%
HeLa cells [3]; 20 μM
  cellular localization of peptide fluorescence: many cells display cytosolic fluorescence
HeLa cells [3]; up to 10 μM
  cellular localization of peptide fluorescence: localized inside endosomes

## HoxB4: transcription factor with therapeutic potential for in vitro expansion of hematopoietic stem cells
NIH 3T3 cells; HoxB4 25-200 nM, dTAT 3 μM
  luciferase induction versus HoxB4 concentration: responded linearly with the concentration of HoxB4 in the media
NIH 3T3 cells; protein 200 nM alone, 1.5 h
  increase in luciferase activity over cells not treated with protein: 2.2 fold
NIH 3T3 cells; protein 200 nM with dTAT 3 μM, 1.5 h
  luciferase induction: 53.1 fold
NIH 3T3 cells; protein 200 nM, dTAT 3 μM
  increase of luciferase induction in the presence of dTAT over protein alone: 24 fold
